Data on ten molecules can be found in patent US8778876B2, “Small-molecule inhibitors of Dengue and West Nile virus proteases” (The Board of Regents of the University of Texas System, priority 2011, dated 2014).

Broadly, the solubility is how much of the substance goes into solution per volume.

Entries after “also recorded” stand apart in the source; their conditions may differ. Counter-ions that a name gives are not always drawn. Like-named read-outs stand apart in the source and are kept apart here. A value given as a limit tells only on which side of the number the result lay.

Data set [1] addresses T1, DEN2V NS2B-NS3pro (Dengue virus type 2, UniProt Q91H74). Briefly: Steady-state kinetics of inhibitors of DEN2V NS2B-NS3pro (Boc-GRR-AMC substrate, Dynafit). Type of data set: biochemical, Dengue 2 virus.
For data set [2], the target named is T2, Bovine pancreatic trypsin (Bos taurus, UniProt P00760).
T2 construct: purchased Sigma Aldrich; host or cells: bovine pancreas
T2 sequence (P00760 24-246): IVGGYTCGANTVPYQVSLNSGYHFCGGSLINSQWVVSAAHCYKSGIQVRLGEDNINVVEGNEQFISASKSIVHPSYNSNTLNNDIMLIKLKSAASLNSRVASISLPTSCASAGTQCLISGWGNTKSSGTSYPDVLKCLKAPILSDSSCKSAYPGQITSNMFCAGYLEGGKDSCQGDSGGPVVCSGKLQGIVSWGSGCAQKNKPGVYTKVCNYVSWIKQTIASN
In words: biochemical. Type of data set: biochemical.

For data set [3], the target named is T2, Bovine pancreatic trypsin. Briefly: Trypsin inhibition assay with chromogenic BAPNA substrate. The data set is classed as biochemical. The note with it: analog at 100 μM. As for the experimental part:
Bovine pancreatic trypsin (Sigma Aldrich, St. Louis) and N-α-Benzoyl-DL-arginine 4-nitroanilide hydrochloride (BAPNA) substrate (Sigma Aldrich, St. Louis) were used for trypsin inhibition assays. Trypsin stock solutions were prepared in sodium phosphate buffer (67 mM [pH 7.6]). Trypsin (60 μM) was incubated with chromogenic BAPNA (500 μM) and release of the para-nitroanilide product monitored using a DU640 spectrophotometer (Beckman Coulter, USA) to measure absorption at 415 nm. The slope of the progress curve was determined using linear regression and used as a baseline for comparison with inhibitor reactions.

A short description of the next data set: physchem. The following applies: pH 9, aqueous with cosolvent or surfactant or cyclodextrin, kinetic from dmso stock.
The conditions of data set [4]: pH 9.
Data set [5] concerns the target T1, DEN2V NS2B-NS3pro. In words: Preliminary DEN2V NS2B-NS3pro inhibition assay. Type of data set: biochemical, Dengue 2 virus. The following applies: 100 nM protease, 100 μM Boc-GRR-AMC, 30 min at 25° C.; aprotinin at 100 μM.
A further data set has as its target WNV NS2B-NS3pro (West Nile virus, UniProt P06935). In words: Steady-state kinetics of inhibitors of WNV NS2B-NS3pro. Type of data set: biochemical. The note with it: for Mechanism: Table 2, WNV NS2B-NS3pro.
Another data set relates to DENV; WNV protease. The data set is classed as biochemical, Dengue virus; West Nile virus.
The subject of another data set is cells. The note with it: Yip et al., 2006; cited from earlier work.
Where [6] appears, read: Ki1 (from biochemical protease inihibition experiments) West Nile virus NS2B-NS.
Where [7] appears, read: Table 1, DEN2V NS2B-NS3pro, HTS-identified hits.

Sequence of WNV NS2B-NS3pro (P06935 1502-1679 limits assumed): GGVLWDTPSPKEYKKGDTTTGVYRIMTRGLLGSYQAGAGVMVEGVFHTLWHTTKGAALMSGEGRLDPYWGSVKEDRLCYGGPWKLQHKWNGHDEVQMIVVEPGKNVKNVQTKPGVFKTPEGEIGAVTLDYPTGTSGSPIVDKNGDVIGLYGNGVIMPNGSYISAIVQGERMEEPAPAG
Sequence of WNV NS2B-NS3pro (P06935 1424-1463 partner limits assumed): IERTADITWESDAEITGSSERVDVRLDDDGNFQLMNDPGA
T1 sequence (Q91H74 entry or part of it, added parts left off): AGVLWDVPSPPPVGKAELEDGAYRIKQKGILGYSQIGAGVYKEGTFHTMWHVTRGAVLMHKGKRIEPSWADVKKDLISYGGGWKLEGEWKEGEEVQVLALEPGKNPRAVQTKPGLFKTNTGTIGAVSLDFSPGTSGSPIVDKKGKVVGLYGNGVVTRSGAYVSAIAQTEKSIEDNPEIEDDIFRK
T1 sequence (Q91H74 entry or part of it partner, added parts left off): as the sequence (Q91H74 entry or part of it, added parts left off) above

Regarding `O=C1c2c(O)ccc([N+](=O)[O-])c2C(=O)c2c([N+](=O)[O-])ccc(O)c21` [ARDP0006, reference compound], the Ki turned out to be 432 ± 46 µM on DEN2V NS2B-NS3pro [1] (Ki1, Table 4, ARDP0006 analogs, DEN2V NS2B-NS3pro) and 13 µM in data set [2] (Ki2 trypsin). Moreover, at DEN2V NS2B-NS3pro [1] (Table 4, ARDP0006 analogs, DEN2V NS2B-NS3pro), the Mechanism result was “competitive inhibition model”. The “Mechanism (trypsin inhibition)” value in [2] is given as “uncompetitive trypsin inhibitor”. In [3], the “Inhibition of trypsin cleavage of the chromogenic substrate” value is “not the chromogenic substrate”. In the data set “physchem”, the solubility is greater than 10 µM.

On to `O=P(=O)c1ccc(OC2OCC(O)C(O)C2O)cc1` (stereo not drawn) [Compound 6A31], for which the solubility entry in data set [4] was “NS (key: compounds soluble in aqueous buffer were indicated with “S”; insoluble compounds indicated with “NS.”)”.

Take `Nc1ccc(N)c2c1C(=O)c1c(N)ccc(N)c1C2=O` [Compound 6A42]: the “Mechanism (trypsin inhibition)” value in data set [2] was “mixed noncompetitive trypsin inhibitors; also recorded: inhibited both the DEN2V NS2B-NS3 protease and trypsin”. The Ki was 60 ± 13 µM in [2] (Ki1 trypsin) and 167 ± 20 µM in data set [2] (Ki2 trypsin). For the same molecule, on DEN2V NS2B-NS3pro [5], the “Inhibition of DEN2V NS2B-NS3pro in the preliminary inhibition assay” value (“Inhibition of DEN2V NS2B-NS3pro” below) is reported as “significant inhibition”.

With `O=C1c2c(O)cccc2Cc2cccc(O)c21` [Compound 6A45], the Ki is 2 µM at WNV NS2B-NS3pro (setting [6]) and 0.6 ± 0.07 µM in data set [2] (Ki1 trypsin). Moreover, the “Mechanism (trypsin inhibition)” value in [2] is “competitive trypsin inhibitors; also recorded: inhibited both the DEN2V NS2B-NS3 protease and trypsin”. On DEN2V NS2B-NS3pro [5], the “Inhibition of DEN2V NS2B-NS3pro” value is given as “significant inhibition”. The solubility in “physchem” is greater than 10 µM.

Consider `O=C1c2ccc(O)cc2C(=O)c2c1ccc(O)c2O` [Compound 6A47], for which the “Mechanism (trypsin inhibition)” value in data set [2] is “mixed noncompetitive trypsin inhibitors; also recorded: inhibited both the DEN2V NS2B-NS3 protease and trypsin”. Moreover, the Ki in data set [2] (Ki1 trypsin) worked out at 4 µM; in data set [2] (read-out: Ki2 trypsin), 25 ± 3 µM. Besides, at DEN2V NS2B-NS3pro [5], the “Inhibition of DEN2V NS2B-NS3pro” value was “significant inhibition”. This molecule registered a solubility in the data set “physchem” greater than 10 µM.

With `O=[N+]([O-])c1ccc(N=Nc2ccc(O)c3ccccc23)c([N+](=O)[O-])c1` [Compound 6A49], the Ki at WNV NS2B-NS3pro (setting [6]) and at WNV NS2B-NS3pro (WNpro Ki1) was 34 µM each time. The “Mechanism (trypsin inhibition)” value in data set [2] is “did not inhibit trypsin; also recorded: No inhibition”. The “Inhibition of DEN2V NS2B-NS3pro” value on DEN2V NS2B-NS3pro [5] is listed as “significant inhibition”. Further, the “Protease inhibited in Knock-down” value with DENV; WNV protease is “DENV; WNV”. Further, the solubility in “physchem” is greater than 10 µM.

In the case of `COc1cc(O)c2c(=O)c3c(O)ccc(OCl)c3oc2c1` [Compound 6A63], in [4], the “Solubility in the kinetic reaction buffer” value is listed as “not soluble”. This molecule registered a solubility in the data set “physchem” of less than 10 µM.

With `CC(=O)Oc1cc2c(cc1OC(C)=O)[C@@H]1c3ccc(OC(C)=O)c(OC(C)=O)c3OC[C@]1(OC(C)=O)C2` [MS5, Haematoxylin pentaacetate], the Mechanism result on DEN2V NS2B-NS3pro [1] (setting [7]) and at WNV NS2B-NS3pro was “Mixed” each time. Besides, the Ki is 16 ± 7 µM on DEN2V NS2B-NS3pro [1] (Table 1, DEN2V NS2B-NS3pro, read-out: Ki1) and 5 ± 0.7 µM on DEN2V NS2B-NS3pro [1] (Table 1, DEN2V NS2B-NS3pro, read-out: Ki2). Further, the “Inhibition in single-point knock-down assays with either protease” value in the data set on DENV; WNV protease (compound incubated with cleavage buffer overnight (complete oxidation)) was “no observable inhibition”.

`CCCCC(CC)CNC(=N)NC(=N)NCCCCCCNC(=N)NC(=N)NCC(CC)CCCC` (stereo not drawn) [MS28, Alexidine hydrochloride, reference compound]: the Ki was 41 ± 3 µM at DEN2V NS2B-NS3pro [1] (Ki1, Table 1, DEN2V NS2B-NS3pro); 84 ± 16 µM at DEN2V NS2B-NS3pro [1] (Ki2, Table 1, DEN2V NS2B-NS3pro); 12 µM at WNV NS2B-NS3pro (Ki1, Table 2, WNV NS2B-NS3pro); 28 ± 5 µM at WNV NS2B-NS3pro (Ki2, Table 2, WNV NS2B-NS3pro). Further, the Mechanism entry at DEN2V NS2B-NS3pro [1] (setting [7]) and on WNV NS2B-NS3pro was “Mixed” in each case. The “ED50 (cell viability reduced by 50%)” value in the data set on cells is listed as “low micromolar”.

In the case of aprotinin [reference compound], the “Inhibition of DEN2V NS2B-NS3pro” value at DEN2V NS2B-NS3pro [5] was “fluorescence levels that were similar to that of the “substrate alone” background control”.
